Test results as given in ChEMBL document CHEMBL1201862, “PubChem BioAssay data set” (2004).
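These data come from cells grown in 96-well plates and exposed to compound for 48 hours at five concentrations. GI50 = concentration required for 50% inhibition of growth.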 Calls of active or inactive are those of the source. Rule as the data show it: active = GI50 up to about 1.1 µM and inactive = higher.

How the values were obtained:
Assay in all cases: NCI tumour cell line growth inhibition, 48 h
SNB-78 = test system: SNB-78
DMS-114 = test system: DMS-114
LXFL 529 = test system: LXFL 529
786-0 = test system: 786-0
NCI-H226 = test system: NCI-H226
NCI-H522 = test system: NCI-H522
OVCAR-8 = test system: OVCAR-8
DMS-273 = test system: DMS-273
HOP-62 = test system: HOP-62
SK-MEL-28 = test system: SK-MEL-28
COLO 205 = test system: COLO 205
TK-10 = test system: TK-10
HOP-18 = test system: HOP-18
KM-20L2 = test system: KM-20L2
UACC-257 = test system: UACC-257

Measured: GI50

Cc1ccc(C2CC(c3cccc([N+](=O)[O-])c3)=Nc3ccccc3S2)cc1 (stereo not given)
inactive: SNB-78 23.2 µM | DMS-114 22.5 µM | LXFL 529 27.2 µM | 786-0 21.8 µM | NCI-H226 > 44.1 µM | NCI-H522 20.5 µM | OVCAR-8 24.2 µM | DMS-273 33.7 µM | HOP-62 > 62.8 µM | SK-MEL-28 62.4 µM | COLO 205 98.2 µM | TK-10 83.2 µM | HOP-18 15.4 µM | KM-20L2 44.5 µM | UACC-257 34.6 µM
